According to the supplement of paper PMC5908809:

Tests used:
[1] = tested on: normal NK cells expanded with K562-aAPC; assay: percent inhibition of viability; higher = more inhibition; conditions: 72 h, IL-2 2.5 ng/mL
Description: (§1)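 Drug sensitivity and resistance testing on K562-aAPC-expanded normal NK cells: 5 concentrations (10-fold steps over a 10,000-fold range), 72 h at 37 °C, viability by CellTiter-Glo normalised to DMSO and benzethonium chloride controls; DSS from the fitted curve.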

DERL-7 (IL-2 2.5 ng/mL) [2] = assay: as above; conditions: 72 h
IMC-1 (IL-2 20 ng/mL) [3] = assay: as above; conditions: 72 h
KAI3 (IL-2 2.5 ng/mL) [4] = assay: as above; conditions: 72 h
KHYG-1 (IL-2 2.5 ng/mL) [5] = assay: as above; conditions: 72 h
NK-92 (IL-2 2.5 ng/mL) [6] = assay: as above; conditions: 72 h
NK-YS (IL-2 2.5 ng/mL) [7] = assay: as above; conditions: 72 h
NKL (IL-2 2.5 ng/mL) [8] = assay: as above; conditions: 72 h
SNK-6 (IL-2 2.5 ng/mL) [9] = assay: as above; conditions: 72 h
YT (IL-2 2.5 ng/mL) [10] = assay: as above; conditions: 72 h
[11] = tested on: normal primary NK cells, pool 1 (3 donors) (IL-2 2.5 ng/mL); assay: as above; conditions: 72 h
[12] = tested on: normal primary NK cells, pool 1 (3 donors), resting (IL-2 0 ng/mL); assay: as above; conditions: 72 h
[13] = tested on: normal primary NK cells, pool 2 (3 donors) (IL-2 2.5 ng/mL); assay: as above; conditions: 72 h
[14] = tested on: normal primary NK cells, pool 3 (3 donors) (IL-2 2.5 ng/mL); assay: as above; conditions: 72 h
[15] = tested on: normal NK cells expanded with K562-aAPC; assay: drug sensitivity score (DSS) (DSS units); higher = more sensitive; extreme values may be limits of the assay; conditions: 72 h; IL-2 2.5 ng/mL
Description: as §1

DERL-7 (IL-2 2.5 ng/mL) [16] = assay: as above; conditions: 72 h
IMC-1 (IL-2 20 ng/mL) [17] = assay: as above; conditions: 72 h
KAI3 (IL-2 2.5 ng/mL) [18] = assay: as above; conditions: 72 h
KHYG-1 (IL-2 2.5 ng/mL) [19] = assay: as above; conditions: 72 h
NK-92 (IL-2 2.5 ng/mL) [20] = assay: as above; conditions: 72 h
NK-YS (IL-2 2.5 ng/mL) [21] = assay: as above; conditions: 72 h
NKL (IL-2 2.5 ng/mL) [22] = assay: as above; conditions: 72 h
SNK-6 (IL-2 2.5 ng/mL) [23] = assay: as above; conditions: 72 h
YT (IL-2 2.5 ng/mL) [24] = assay: as above; conditions: 72 h
[25] = tested on: normal primary NK cells, pool 1 (3 donors) (IL-2 2.5 ng/mL); assay: as above; conditions: 72 h
[26] = tested on: normal primary NK cells, pool 1 (3 donors), resting (IL-2 0 ng/mL); assay: as above; conditions: 72 h
[27] = tested on: normal primary NK cells, pool 2 (3 donors) (IL-2 2.5 ng/mL); assay: as above; conditions: 72 h
[28] = tested on: normal primary NK cells, pool 3 (3 donors) (IL-2 2.5 ng/mL); assay: as above; conditions: 72 h

CNC(=O)c1nn(C)c2c1C(C)(C)Cc1cnc(Nc3ccc(N4CCN(C)CC4)cc3)nc1-2 [Milciclib] (max concentration tested 10000 nM)
percent inhibition of viability [%]
Conditions | 1 nM | 10 nM | 100 nM | 1000 nM | 10000 nM
DERL-7 (IL-2 2.5 ng/mL) [2] | 3.27 | -10.3 | 4.85 | 67.1 | 98.4
IMC-1 (IL-2 20 ng/mL) [3] | -3.68 | -8.88 | -4.95 | -5.54 | 101
KAI3 (IL-2 2.5 ng/mL) [4] | 2.07 | -4.15 | 13.3 | 40 | 103
KHYG-1 (IL-2 2.5 ng/mL) [5] | 0.72 | 0.82 | 16.2 | 88.3 | 108
NK-92 (IL-2 2.5 ng/mL) [6] | -4.06 | -2.4 | 1.56 | 39 | 101
NK-YS (IL-2 2.5 ng/mL) [7] | -3.1 | -3.45 | 7.23 | 40.2 | 103
NKL (IL-2 2.5 ng/mL) [8] | -13.6 | -18.8 | -12.2 | 37.9 | 106
SNK-6 (IL-2 2.5 ng/mL) [9] | 2.94 | -5.15 | -12.8 | 17.8 | 93.1
YT (IL-2 2.5 ng/mL) [10] | 1.63 | 0.13 | -0.36 | 21 | 106
[1] | 4.02 | -0.67 | 11 | 58 | 101
[11] | -4.67 | -0.64 | -2.17 | 41.2 | 94.1
[12] | -2.66 | 2.94 | 14.9 | 61.7 | 88.7
[13] | -6.1 | -7.12 | 7.61 | 55.9 | 96.4
[14] | -13.5 | -12.3 | -7.15 | 27.3 | 98.8

Conditions | drug sensitivity score
DERL-7 (IL-2 2.5 ng/mL) [16] | 13.6
IMC-1 (IL-2 20 ng/mL) [17] | 5.2
KAI3 (IL-2 2.5 ng/mL) [18] | 10.3
KHYG-1 (IL-2 2.5 ng/mL) [19] | 18.2
NK-92 (IL-2 2.5 ng/mL) [20] | 10.8
NK-YS (IL-2 2.5 ng/mL) [21] | 10.9
NKL (IL-2 2.5 ng/mL) [22] | 10.7
SNK-6 (IL-2 2.5 ng/mL) [23] | 8.04
YT (IL-2 2.5 ng/mL) [24] | 8.93
[15] | 12.8
[25] | 10.6
[26] | 13.5
[27] | 12.2
[28] | 9.53

Oc1c2ccccc2c2c3c(cccc13)N=N2 (max concentration tested 100000 nM)
percent inhibition of viability [%]
Conditions | 10 nM | 100 nM | 1000 nM | 10000 nM | 100000 nM
DERL-7 (IL-2 2.5 ng/mL) [2] | 0.02 | 10.7 | 21.6 | 53.3 | 72.7
IMC-1 (IL-2 20 ng/mL) [3] | -9.76 | -5.66 | -7.38 | 9.45 | 15.4
KAI3 (IL-2 2.5 ng/mL) [4] | -1.06 | -0.37 | -1.44 | 36 | 77.2
KHYG-1 (IL-2 2.5 ng/mL) [5] | -9.58 | -4.25 | -1.77 | 41.2 | 79.2
NK-92 (IL-2 2.5 ng/mL) [6] | 5.13 | 5.87 | 15.3 | 43.2 | 71.4
NK-YS (IL-2 2.5 ng/mL) [7] | -9.38 | -3.05 | -7.51 | 20.3 | 61
NKL (IL-2 2.5 ng/mL) [8] | -5.72 | 1.11 | 17.1 | 43.4 | 71.7
SNK-6 (IL-2 2.5 ng/mL) [9] | -6.71 | -15.7 | -11.4 | 25.4 | 66.8
YT (IL-2 2.5 ng/mL) [10] | -6.35 | -2.65 | -2.78 | 17.4 | 42.7
[1] | -5.86 | -5.73 | -0.03 | 16.2 | 46.2
[11] | 1.28 | 6.88 | 11.3 | 22.6 | 57.5
[12] | 10.6 | 13.4 | 3.37 | 16 | 14.5
[13] | -8.33 | -0.93 | 6.2 | 28.3 | 40.2
[14] | -1.96 | 3 | 10.6 | 5.71 | 43.7

Conditions | drug sensitivity score
DERL-7 (IL-2 2.5 ng/mL) [16] | 12.8
IMC-1 (IL-2 20 ng/mL) [17] | 0.95
KAI3 (IL-2 2.5 ng/mL) [18] | 8.9
KHYG-1 (IL-2 2.5 ng/mL) [19] | 9.5
NK-92 (IL-2 2.5 ng/mL) [20] | 10.2
NK-YS (IL-2 2.5 ng/mL) [21] | 6.25
NKL (IL-2 2.5 ng/mL) [22] | 10.3
SNK-6 (IL-2 2.5 ng/mL) [23] | 7.17
YT (IL-2 2.5 ng/mL) [24] | 4.53
[15] | 4.7
[25] | 5.75
[26] | 0
[27] | 5.61
[28] | 3.2

CN[C@@H]1C[C@H]2O[C@@](C)([C@@H]1OC)n1c3ccccc3c3c4c(c5c6ccccc6n2c5c31)C(=O)N[C@H]4O [UCN-01] (max concentration tested 10000 nM)
percent inhibition of viability [%]
Conditions | 1 nM | 10 nM | 100 nM | 1000 nM | 10000 nM
DERL-7 (IL-2 2.5 ng/mL) [2] | 8.29 | 22.9 | 82.2 | 101 | 101
IMC-1 (IL-2 20 ng/mL) [3] | -7.27 | -2.85 | -13.4 | 100 | 101
KAI3 (IL-2 2.5 ng/mL) [4] | 6.37 | 19.1 | 95.1 | 105 | 107
KHYG-1 (IL-2 2.5 ng/mL) [5] | 4.96 | 7.2 | 103 | 110 | 108
NK-92 (IL-2 2.5 ng/mL) [6] | -0.38 | 4.42 | 89.2 | 107 | 109
NK-YS (IL-2 2.5 ng/mL) [7] | 2.38 | 1.74 | 83.6 | 96.9 | 105
NKL (IL-2 2.5 ng/mL) [8] | -2.69 | 2.69 | 78.1 | 90.6 | 106
SNK-6 (IL-2 2.5 ng/mL) [9] | -11 | 34 | 92.7 | 100 | 101
YT (IL-2 2.5 ng/mL) [10] | 4.61 | 17.4 | 28.1 | 93 | 108
[1] | 0.67 | 13.9 | 76.9 | 100 | 101
[11] | 4.79 | 0.37 | 51.1 | 95.7 | 99.2
[12] | -5.95 | 4.23 | 23.4 | 84.6 | 92.1
[13] | -7.23 | 6.32 | 58.8 | 95.4 | 99
[14] | -5.75 | 2.95 | 40.4 | 97.2 | 101

Conditions | drug sensitivity score
DERL-7 (IL-2 2.5 ng/mL) [16] | 30.4
IMC-1 (IL-2 20 ng/mL) [17] | 17.1
KAI3 (IL-2 2.5 ng/mL) [18] | 32.4
KHYG-1 (IL-2 2.5 ng/mL) [19] | 31.8
NK-92 (IL-2 2.5 ng/mL) [20] | 29.2
NK-YS (IL-2 2.5 ng/mL) [21] | 27.8
NKL (IL-2 2.5 ng/mL) [22] | 27.4
SNK-6 (IL-2 2.5 ng/mL) [23] | 34
YT (IL-2 2.5 ng/mL) [24] | 20.2
[15] | 28.5
[25] | 23.8
[26] | 18.3
[27] | 24.8
[28] | 22.5
